Results taken from patent US8058242B2, “Chimeric proteins with natriuretic activity” (The University of Queensland, priority 2004, dated 2011).
Positions of bridges follow the written chain, without caps; N, C: chain ends. Residues, ends and D or L forms follow the SMILES beside them.

How the values were obtained:
[1] = biological target: T1, NPR-A signaling in HeLa cells (Homo sapiens, UniProt P16066); experiment: cGMP AlphaScreen assay in HeLa cells (Examples 14, 15); format: cell-based; details: 30 minutes at 37° C.
T1 construct: Cyclic GMP (cGMP) elevation in HeLa cells in response to Natriuretic Peptide stimulation; endogenous in cells; host or cells: HeLa cells
T1 sequence (P16066 33-1061): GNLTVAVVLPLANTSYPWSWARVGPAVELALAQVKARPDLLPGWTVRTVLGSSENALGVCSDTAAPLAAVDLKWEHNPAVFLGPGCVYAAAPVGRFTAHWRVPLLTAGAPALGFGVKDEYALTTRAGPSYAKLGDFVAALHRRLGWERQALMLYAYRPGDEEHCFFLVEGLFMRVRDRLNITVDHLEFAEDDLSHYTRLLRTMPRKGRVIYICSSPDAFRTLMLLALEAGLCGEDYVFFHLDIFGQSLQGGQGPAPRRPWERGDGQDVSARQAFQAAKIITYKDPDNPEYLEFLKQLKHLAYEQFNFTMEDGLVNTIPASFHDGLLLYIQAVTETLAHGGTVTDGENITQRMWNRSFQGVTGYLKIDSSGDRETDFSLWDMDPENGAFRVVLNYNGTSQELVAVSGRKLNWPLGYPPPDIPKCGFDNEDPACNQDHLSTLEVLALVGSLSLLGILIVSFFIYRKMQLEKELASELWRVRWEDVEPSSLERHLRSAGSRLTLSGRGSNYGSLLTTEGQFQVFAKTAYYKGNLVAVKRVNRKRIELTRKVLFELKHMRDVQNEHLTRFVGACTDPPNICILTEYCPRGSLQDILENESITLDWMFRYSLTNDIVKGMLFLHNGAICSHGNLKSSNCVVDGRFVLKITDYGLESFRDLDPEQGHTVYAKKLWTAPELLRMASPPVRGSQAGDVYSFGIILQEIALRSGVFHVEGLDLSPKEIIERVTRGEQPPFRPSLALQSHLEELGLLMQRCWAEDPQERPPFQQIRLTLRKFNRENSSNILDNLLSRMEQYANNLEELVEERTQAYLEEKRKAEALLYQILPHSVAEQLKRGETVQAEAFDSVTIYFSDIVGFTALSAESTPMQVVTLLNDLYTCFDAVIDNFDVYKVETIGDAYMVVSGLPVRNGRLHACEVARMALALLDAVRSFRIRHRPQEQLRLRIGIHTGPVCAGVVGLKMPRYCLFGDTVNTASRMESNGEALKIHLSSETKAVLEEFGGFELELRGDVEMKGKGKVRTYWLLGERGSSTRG
Method: HeLa cells were maintained in RPMI cell culture medium (Gihco Invitrogen, Mt Waverley, Australia) supplemented with 10% Foetal Bovine Serum (Cambrex Bio Science, Rockland, USA). Upon reaching confluence, cells were sub-cultured such that they would be 70-90% confluent at time of assay.
Cyclic GMP (cGMP) elevation in HeLa cells in response to Natriuretic Peptide stimulation was performed using a cGMP AlphaScreen kit (PerkinElmer, Boston, USA), as follows for normal experiments: Cells were detached, pelleted to remove growth medium, and resuspended in Stimulation Buffer (Hank's Balanced Salt Solution, 0.1% Bovine Serum Albumin [BSA] (Sigma-Aldrich, Castle Hill, Australia), 1 mM 3-Isobutyl-1-methylxanthine [IBMX] (Sigma-Aldrich, Castle Hill, Australia)) and diluted to 6×10^6 cells per mL (30 000 cells per 5 μL). 5 μL of cells were added to wells of white 384-well OptiPlates (PerkinElmer, Boston, USA), and stimulated with increasing concentrations of peptide for 30 minutes at 37° C. Cells were then lysed with 10 μL Lysis buffer (dH2O, 0.3% Tween-20 (Sigma-Aldrich, Castle Hill, Australia), 5 mM HEPES (JRH Biosciences, Kansas, USA) and 0.1% BSA) and 5 μL acceptor bead mix (10 μL per mL acceptor beads and 1/3000 anti-cGMP antibody (BioVision, Mountain View, USA) in lysis buffer) added per well in the dark. Plates were incubated in the dark at room temperature for 30 minutes, then 5 μL donor bead mix (10 μL per ML donor beads and 0.3 nM biotinylated cGMP in lysis buffer) was added per well in the dark and the plate incubated overnight at room temperature. Signal was read using an EnVision plate reader (PerkinElmer, Boston, USA) and data analysed using Prism software. The cGMP standard curve was performed as per manufacturer's instructions.
To examine whether TNPc and synthetic analogs produced in the inventors' laboratory could stimulate NPR-A signaling, cGMP elevations in HeLa cells in response to these peptides were measured, as described above.

pepsin = experiment: Stability to enzymatic degradation by pepsin (Example 16); format: in vitro ADME
From the text: (§1) The stability of TDT and was investigated using the same enzymatic degradation assays (NEP, plasmin, pepsin) disclosed in Example 7. […] It is also evident that the increased NEP stability cannot be explained by the length of the tail region alone as the NEP cleavage site residues at the N-terminal end of the loop region.

[2] = biological target: Endopeptidase (NEP) (EC 3.4.24.11) (Homo sapiens, UniProt P08473); experiment: Stability to enzymatic degradation by NEP (Examples 7, 16); format: in vitro ADME; details: over the 360 min measurement period
Method: (§2) The incubation buffer contained 100 mM Tris/HCl and 150 mM NaCl and the pH was adjusted to 7.2-7.4. In each assay, 100 μl of peptide [500 μM] was incubated with 300 μl buffer (with 500 ng Endopeptidase (NEP) or 10 μg Plasmin) at 37° C. 50 μl aliquots were taken at times 5 min, 30 min, 60 min, 90 min, 180 min and 24 h. The reaction was quenched by heating to 100° C. for 4 min and the remaining peptide concentrations measured by RP-HPLC. Note that the levels of Plasmin required to degrade these peptides was several thousands time the levels present in human plasma.
as §1

Plasmin = biological target: T2, Plasmin (Homo sapiens, UniProt P00747); experiment: Stability to enzymatic degradation by plasmin (Examples 7, 16); format: in vitro ADME
T2 construct: with 500 ng Endopeptidase (NEP) or 10 μg Plasmin
Method: as §2, §1

T2 sequence (P00747 97-580 partner limits assumed, species assumed): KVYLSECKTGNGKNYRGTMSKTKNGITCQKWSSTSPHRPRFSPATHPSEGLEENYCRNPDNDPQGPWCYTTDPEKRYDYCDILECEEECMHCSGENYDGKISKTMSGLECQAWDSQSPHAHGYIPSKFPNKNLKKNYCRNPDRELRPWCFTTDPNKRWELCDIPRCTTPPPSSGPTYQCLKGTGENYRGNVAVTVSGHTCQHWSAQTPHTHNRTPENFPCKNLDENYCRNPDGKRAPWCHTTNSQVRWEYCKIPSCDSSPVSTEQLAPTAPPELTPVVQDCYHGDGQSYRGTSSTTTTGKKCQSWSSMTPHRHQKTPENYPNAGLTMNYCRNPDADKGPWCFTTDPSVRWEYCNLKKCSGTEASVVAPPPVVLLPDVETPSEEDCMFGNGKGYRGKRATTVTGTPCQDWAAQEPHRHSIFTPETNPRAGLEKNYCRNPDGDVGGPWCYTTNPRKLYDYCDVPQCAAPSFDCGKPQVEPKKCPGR
T2 sequence (P00747 581-810 limits assumed, species assumed): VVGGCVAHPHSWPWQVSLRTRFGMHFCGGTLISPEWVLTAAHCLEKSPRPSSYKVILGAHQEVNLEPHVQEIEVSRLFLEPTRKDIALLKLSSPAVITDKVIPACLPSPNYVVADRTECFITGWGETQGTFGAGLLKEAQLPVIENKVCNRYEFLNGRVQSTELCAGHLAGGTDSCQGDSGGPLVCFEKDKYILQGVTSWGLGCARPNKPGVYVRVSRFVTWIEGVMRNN
Sequence of Endopeptidase (NEP) (EC 3.4.24.11) (P08473 whole entry): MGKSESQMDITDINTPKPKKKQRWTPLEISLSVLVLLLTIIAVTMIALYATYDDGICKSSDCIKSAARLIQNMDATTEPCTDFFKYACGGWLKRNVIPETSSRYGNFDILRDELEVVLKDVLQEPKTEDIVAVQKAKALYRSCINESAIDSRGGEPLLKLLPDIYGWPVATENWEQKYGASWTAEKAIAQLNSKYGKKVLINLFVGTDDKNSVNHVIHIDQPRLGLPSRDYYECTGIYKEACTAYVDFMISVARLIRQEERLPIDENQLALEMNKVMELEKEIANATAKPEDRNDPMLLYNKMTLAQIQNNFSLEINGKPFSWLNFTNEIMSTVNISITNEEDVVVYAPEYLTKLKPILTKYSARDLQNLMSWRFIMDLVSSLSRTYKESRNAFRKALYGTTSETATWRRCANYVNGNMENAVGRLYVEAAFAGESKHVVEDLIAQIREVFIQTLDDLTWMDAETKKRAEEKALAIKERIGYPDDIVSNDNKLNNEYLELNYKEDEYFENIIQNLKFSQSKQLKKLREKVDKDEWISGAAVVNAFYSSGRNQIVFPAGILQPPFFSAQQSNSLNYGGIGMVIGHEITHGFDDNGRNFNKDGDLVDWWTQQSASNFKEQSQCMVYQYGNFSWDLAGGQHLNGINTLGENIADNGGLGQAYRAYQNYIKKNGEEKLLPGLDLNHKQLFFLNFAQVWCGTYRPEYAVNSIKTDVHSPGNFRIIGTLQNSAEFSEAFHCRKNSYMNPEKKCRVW

SMILES: CC[C@H](C)[C@H](NC(=O)[C@H](CCCCN)NC(=O)[C@H](CO)NC(=O)[C@H](CC(=O)O)NC(=O)[C@@H](N)CO)C(=O)NCC(=O)N[C@@H](CC(N)=O)C(=O)NCC(=O)N[C@H]1CSSC[C@@H](C(=O)N[C@@H](CC(N)=O)C(=O)N[C@@H](CCCNC(=N)N)C(=O)N[C@H](C(=O)N[C@@H](CCSC)C(=O)N[C@@H](CCC(N)=O)C(=O)N[C@@H](CC(N)=O)C(=O)N2CCC[C@H]2C(=O)N2CCC[C@H]2C(=O)N[C@@H](CCCCN)C(=O)N[C@@H](CCCCN)C(=O)N[C@@H](Cc2ccccc2)C(=O)N[C@@H](CO)C(=O)NCC(=O)N[C@@H](CCC(=O)O)C(=O)O)[C@@H](C)CC)NC(=O)CNC(=O)[C@H](CC(C)C)NC(=O)[C@H](CC(N)=O)NC(=O)[C@H](CO)NC(=O)[C@H](C(C)C)NC(=O)[C@H](Cc2c[nH]cn2)NC(=O)[C@H](CC(N)=O)NC(=O)[C@H]([C@@H](C)CC)NC(=O)[C@H](CCCNC(=N)N)NC(=O)[C@H](CC(=O)O)NC(=O)[C@H]([C@@H](C)CC)NC(=O)[C@H](CCCCN)NC(=O)[C@H](Cc2c[nH]cn2)NC(=O)CNC(=O)[C@H](Cc2ccccc2)NC1=O [TDT] (H-SDSKIGNGCFGHKIDRINHVSNLGCNRIMQNPPKKFSGE-OH; disulfide 9-25)
- EC50 ([1]; EC50, cGMP accumulation in HeLa cells): 0.0704 µM
- EC50 ([1]; −Log10EC50 (pEC50) ± Standard Error, cGMP accumulation in HeLa cells): 0.0619 µM
- stability against pepsin compared with ANP (pepsin): more stable than ANP
- degradation by NEP [2]: minimal degradation
- stability against plasmin compared with ANP (Plasmin): more stable than ANP
